Results as given in patent US9642861B2, “Methods of treating oral mucositis” (priority 2006, dated 2017).
“Also recorded” adds a separate entry of the source. Where two headings read alike, the source gives them in different places.

Key:
[1] = system: oral mucositis induced in hamsters by acute radiation (40 Gy to left buccal cheek pouch); assay: ACT-02 (Example 1): acute radiation model of oral mucositis in hamsters, mucositis scoring; format: in vivo, Syrian Golden Hamsters; design: peak mucositis score (mean daily score): scale not given here
Description: The objective of this study is to evaluate the effect of M40403, administered by either ip or topical routes, with 2 different schedules, on the frequency, severity and duration of oral mucositis induced in hamsters by acute radiation.
The acute radiation model in hamsters, developed by the Principal Investigator, has proven to be an accurate, efficient and cost-effective technique to provide a preliminary evaluation of anti-mucositis compounds (9). The course of mucositis in this model is well defined and results in peak scores approximately 14-16 Days following radiation. The acute model has little systemic toxicity, resulting in few hamster deaths, thus permitting the use of smaller groups (N=7-8) for initial efficacy studies. It has also been used to study specific mechanistic elements in the pathogenesis of mucositis. Molecules that show efficacy in the acute radiation model may be further evaluated in the more complex models of fractionated radiation, chemotherapy, or concomitant therapy.
In this study, an acute radiation dose of 40 Gy on day 0 was administered locally to the cheek pouch. Clinically significant mucositis was observed on days 12 through 28.
Forty-eight male Syrian Golden Hamsters were divided randomly into 6 groups of 8 animals and given an acute radiation dose of 40 Gy directed to their left buccal cheek pouch. This was accomplished by anesthetizing the animals and everting the left buccal pouch, while protecting the rest of the animal with a lead shield. Test materials were given topically or by ip injection twice daily as detailed in Table 1. Mucositis was evaluated clinically starting on Day 6, and continued on alternate days until day 28.
The grade of mucositis was scored, beginning on day 6, and for every second day thereafter, through and including day 28 (for scoring scheme, see Table 2 and FIG. 2). The effect on mucositis of each drug treatment compared to ip vehicle-treated controls was assessed according to the following parameters:
The difference in the number of days hamsters in each group have ulcerative (score≧3) mucositis.
On each evaluation day, the number of animals with a blinded mucositis score of ≧3 in each drug treatment group was compared to the vehicle-treated control group. Differences were compared on a cumulative basis and statistical significance was determined by chi-square analysis. Efficacy, in this analysis, is defined as a significant reduction in the number of days that a group of animals had ulcerations (scores ≧3) when compared to the control group.
For each evaluation day the scores of the control group were compared to those of the treated groups using non-parametric rank sum analysis. Treatment success was considered as a statistically significant lowering of scores in the treated group on 2 or more days from day 6 to day 28.
(§1) All forty-eight (48) male Syrian Golden Hamsters were given an acute radiation dose of 40 Gy directed to their left buccal cheek pouch. This was accomplished by anesthetizing the animals and everting the left buccal pouch, while protecting the rest of the animal with a lead shield. Test materials were given either topically or by ip injection twice daily as detailed in Table 1. Mucositis was evaluated clinically starting on day 6, and continuing on alternate days until day 28. The study timeline is depicted in FIG. 1. Dose levels were determined based on the results of a previous acute toxicity study (data not shown), and the levels shown in Table 1.
Mucositis was induced using a standardized acute radiation protocol. A single dose of radiation (40 Gy/dose) was administered to all animals on day 0. Radiation was generated with a 250 kilovolt potential (15-ma) source at a focal distance of 50 cm, hardened with a 0.35 mm Cu filtration system. Irradiation targeted the left buccal pouch mucosa at a rate of 3.2 Gy/minute. Prior to irradiation, animals were anesthetized with an intra-peritoneal injection of Ketamine (160 mg/kg) and Xylazine (8 mg/kg). […]

[2] = format: in vivo; details: for Survival (animal recorded dead in weight table): first study; for survival status noted in Animal Weights table: second study, group 3
Description: All animals were weighed daily and their survival recorded, in order to assess possible differences in animal weight among treatment groups as an indication for mucositis severity and/or possible toxicity resulting from the treatments.
as §1
Male LVG Syrian Golden Hamsters (Charles River Laboratories), aged 5 to 6 weeks, with average body weight of 84.1 g at study commencement, were used. Animals were individually numbered using an ear punch and housed in small groups of approximately 8 animals per cage. Animals were acclimatized prior to study commencement. During this period of 2 days, the animals were observed daily in order to reject animals that presented in poor condition.
The significance of these differences was evaluated by calculating the mean area under the curve for the percentage weight gain for each animal and comparing the groups using a OneWay ANOVA test. There was a significant difference between the control group and group 3 treated by ip injection with M40403 twice daily (30 mg/kg) on days −1 to 15 (P<0.001). There was also a significant difference between the control group and the group treated by ip injection with M40403 twice daily at 30 mg/kg/dose from day −1 to day 3 (P=0.018). No other significant differences were seen. […] Many of the groups with a significant reduction in weight gain are the same groups in which animal deaths were observed.

[3] = system: animal model of rheumatoid arthritis; details: rat, in vivo; cited from earlier work
[4] = group 2: ip 3 mg/kg bid day −1 to 15
[5] = group 3: ip 30 mg/kg bid day −1 to 15
[6] = group 4: top 3 mg/ml bid, 0.2 ml per dose, day −1 to 15
[7] = group 5: top 30 mg/ml bid, 0.2 ml per dose, day −1 to 15
[8] = group 6: ip 30 mg/kg bid day −1 to 3

For [Cl-].[Cl-].[Mn+2].c1cc2nc(c1)CN[C@@H]1CCCC[C@H]1NCCN[C@@H]1CCCC[C@H]1NC2 [M40403], the “Chi Sq v control, days with mucositis score >=3” value (“Chi Sq v control, days” below) [1, 4] was 0.3440, the “Days <3 (animal days with a mucositis score below 3)” value [1, 4] was 126 and the “Days >=3 (animal days with a mucositis score of 3 or more)” value [1, 4] was 66. For the same compound, the “day of peak mucositis score” value [1, 4] was 18 days, the “peak mucositis score (mean daily score)” value [1, 4] was 2.8 and the “progression of mucositis severity compared with control group” value (“progression … compared with control group” below) [1, 4] was “very similar to that observed in the control group”. The “Chi Sq v control, days” value [1, 5] was 0.9890, the “Days <3 (animal days with a mucositis score below 3)” value [1, 5] was 96 and the “Days >=3 (animal days with a mucositis score of 3 or more)” value [1, 5] was 56. For the same compound, the “day of peak mucositis score” value [1, 5] was 18 days, the “peak mucositis score (mean daily score)” value [1, 5] was 3.0 and the “progression … compared with control group” value [1, 5] was “indistinguishable from that observed in groups 1 and 2”. The “progression … compared with control group” value ([1]; group 4: top 3 mg/ml bid day −1 to 15) was “closely paralleled those in the control group”, the “Chi Sq v control, days” value [1, 6] was 1.6760 and the “Days <3 (animal days with a mucositis score below 3)” value [1, 6] was 119. The “Days >=3 (animal days with a mucositis score of 3 or more)” value [1, 6] was 73, the “progression … compared with control group” value ([1]; group 5: top 30 mg/ml bid day −1 to 15) was “showed a reduction of mucositis severity on day 10; also recorded: only slightly less than those in the control group” and the “Chi Sq v control, days” value [1, 7] was 0.136. The “Days <3 (animal days with a mucositis score below 3)” value [1, 7] was 128, the “Days >=3 (animal days with a mucositis score of 3 or more)” value [1, 7] was 64 and the “Chi Sq v control, days” value [1, 8] was 7.83. The “Days <3 (animal days with a mucositis score below 3)” value [1, 8] was 120, the “Days >=3 (animal days with a mucositis score of 3 or more)” value [1, 8] was 24 and the “day of peak mucositis score” value [1, 8] was 14 days. For the same compound, the “peak mucositis score (mean daily score)” value [1, 8] was 3.0, the “progression … compared with control group” value ([1]; group 6: ip 30 mg/kg bid day −1 to 3, from day 16 to day 28) was “decreased much more rapidly than the control group” and the “effect of topical dosing on weight and mucositis severity” value ([1]; topical dosing, 3 or 30 mg/ml bid day −1 to 15, formulation used here) was “did not appear to have any effect on either weight or mucositis severity”. For the same compound, the “Survival (animal recorded dead in weight table)” value ([2]; Group 2, day 0) was “dead”, the “Survival (animal recorded dead in weight table)” value ([2]; Group 5, day 0) was “dead” and the “Survival (animal recorded dead in weight table)” value ([2]; Group 6, day 0) was “dead”. The “deaths during the study” value ([2]; group 3: ip 30 mg/kg bid day −1 to 15, hamster 19, after extended failure to gain weight) was “died on day 12”, the “deaths during the study” value ([2]; group 6: ip 30 mg/kg bid day −1 to 3, appeared to be anesthesia overdose) was “two” and the “average weight gain, % of starting weight by day 28” value ([2]; hamster, in vivo, ip, 3 mg/kg) was 66.0%. For the same compound, the “weight gain during dosing” value ([2]; hamster, in vivo, ip, 30 mg/kg) was “general lack of weight gain during dosing”, the “toxicity based on mortality and body weight” value ([2]; ip injections twice daily at 30 mg/kg) was “appear to show some toxicity” and the “survival status noted in Animal Weights table” value ([2]; animal 19, day 12) was “dead”. The “survival status noted in Animal Weights table” value ([2]; animal 23, day 0) was “dead” and the “efficacy in an animal model of rheumatoid arthritis” value [3] was “effective”.
